Measured values published in patent publication US20240238299A1, “USE OF PYRROLOPYRIMIDINE COMPOUND” (GUANGZHOU JOYO PHARMATECH CO., LTD, priority 2021, published 2024).

What was measured:
[1] = test system: MOG35-55-induced experimental autoimmune encephalomyelitis (EAE) mouse model; assay: MOG35-55-induced EAE mouse model, clinical scoring and incidence; assay type: in vivo, C57BL/6 mice; settings: for reduction rate in AUC for clinical scoring: 14 days, vs vehicle control
[2] = test system: IL-6 secretion by astrocytes; assay: IL-6 release caused by NMO-IgG in astrocytes (ELISA); assay type: cell-based, rat; settings: NMO-IgG 250 μg/mL, 24 h; for IL-6 inhibition rate, Mean: 5 μM
Procedure: The compound was dissolved in DMSO to prepare a compound stock solution. The compound stock solution was then serially diluted in a gradient using DMSO to prepare a series of 1000× test compound solutions. These 1000× test compound solutions were further diluted at a ratio of 1:100 with cell culture medium to prepare a series of 10× test compound solutions. Finally, according to the experimental well plate loading design, a corresponding volume of 10× solution was added to each well, with two duplicate wells for each drug concentration. In the experiment, the test solution (i.e., 1× solution) had varying final concentrations of compound I, specifically 20, 2.222, 0.247, and 0.027 μM; the concentration of Meprednisone compound (i.e., 1× solution) was 30 μM; the concentration of BAY 11-7082 (i.e., 1× solution) was 5 μM; the final DMSO concentration in each well was 0.1%. DMSO without compound was added to blank control wells, with a final concentration of 0.1%.
1) Extraction and separation of primary astrocytes: A mixed glial cell culture medium was prepared from the cerebral cortex of 1-day-old newborn rats. After euthanizing the newborn rats, they were immersed in alcohol. Their skin was cut, the brains were removed, and the cerebral cortex was isolated. The tissues were then ground to remove the connective tissue, and the mixed glial cells were sieved through a 70 µm cell strainer. These cells were then seeded into a cell culture plate coated with poly-L-lysine. The culture medium was DMEM, containing 10% heat-inactivated fetal bovine serum, 100 U/mL penicillin, and […]. After about 12 days of in vitro culture, the cells reached confluence. Microglia, endothelial cells, and oligodendrocytes were removed from the mixed glial cells by vibratory shaking. […] 2) Culture of astrocytes: The isolated astrocytes were cultured in a 37° C., 5% CO2 incubator. The culture medium was changed every 3 to 4 days. The astrocytes could also be digested using trypsin (0.25%) and then frozen in liquid nitrogen for future use.
Human NMO-IgG was isolated from a sterile-filtered serum pool (AQP4-IgG-positive NMOSD) using a HiTrap Protein G-HP column (GE Healthcare). The serum samples were diluted at a ratio of 1:1 with binding buffer, and after packing the purification column with binding buffer, the serum sample was added. The column was subsequently washed with binding buffer again and the antibodies were eluted according to the instructions. Finally, the antibodies were concentrated on an Amicon Ultra-4 centrifugal filter (millipore) with a 10,000 MW cutoff. The concentrated immunoglobulin was filtered through a 0.22 µm filter. The protein concentration of the concentrate was determined using the BCA method and stored at −80° C. The total IgG extracted from the serum of NMOSD patients was NMO-IgG (containing AQP4-IgG), and the cells were stimulated at a protein concentration of 250 μg/mL during the experiment.
Astrocytes were cultured or revived until day 2 and then seeded into a 24-well plate at a density of 1.5×10^5 cells per well. The test compounds, including compound I, Meprednisone, and BAY11-7082, were pre-incubated with the cells for 30 minutes at the concentrations previously described. Subsequently, in each group, the cells continued to be stimulated with NMO-IgG at a final working concentration of 250 μg/mL for 24 hours to induce astrocyte damage. Normal human Control-IgG (CON-IgG) stimulation at a final working concentration of 250 μg/mL was used as a negative control.
After 24 hours of NMO-IgG stimulation of cells, the supernatant was collected. IL-6 levels were detected using an enzyme-linked immunosorbent assay (ELISA) following the instructions of the IL-6 ELISA kit (R&D Systems, USA, #RD6000B). The absorbance (OD values) of the samples in each group was measured, and the concentration of IL-6 in each experimental group was calculated through standard curve fitting. […]

rat primary astrocytes = assay: Cell viability (CCK-8) in NMO-IgG induced astrocyte injury model; assay type: cell-based; settings: NMO-IgG 250 μg/mL, 24 h

## C[C@@H]1C[C@H]2[C@@H]3CCC4=CC(=O)C=C[C@]4(C)[C@@]3(F)[C@@H](O)C[C@]2(C)[C@@]1(O)C(=O)CO [Dexamethasone, reference compound]
[1]; 1 mg/kg QD oral
  reduction rate in AUC for clinical scoring: 65%
[1]; G3, 1 mg/kg PO QD, day 0
  incidence of EAE: 0%
[1]; G3, 1 mg/kg PO QD, day 2
  incidence of EAE: 0%
[1]; G3, 1 mg/kg PO QD, day 4
  incidence of EAE: 0%
[1]; G3, 1 mg/kg PO QD, day 7
  incidence of EAE: 0%
[1]; G3, 1 mg/kg PO QD, day 9
  incidence of EAE: 0%
[1]; G3, 1 mg/kg PO QD, day 11
  incidence of EAE: 0%
[1]; G3, 1 mg/kg PO QD, day 12
  incidence of EAE: 10%
[1]; G3, 1 mg/kg PO QD, day 13
  incidence of EAE: 20%
[1]; G3, 1 mg/kg PO QD, day 14
  incidence of EAE: 60%
[1]; G3, 1 mg/kg PO QD, day 15
  incidence of EAE: 60%
[1]; G3, 1 mg/kg PO QD, day 16
  incidence of EAE: 60%
[1]; G3, 1 mg/kg PO QD, day 17
  incidence of EAE: 50%
[1]; G3, 1 mg/kg PO QD, day 18
  incidence of EAE: 50%
[1]; G3, 1 mg/kg PO QD, day 19
  incidence of EAE: 50%
[1]; G3, 1 mg/kg PO QD, day 20
  incidence of EAE: 50%
[1]; G3, 1 mg/kg PO QD, day 21
  incidence of EAE: 50%
[1]; G3, 1 mg/kg PO QD, day 22
  incidence of EAE: 40%
[1]; G3, 1 mg/kg PO QD, day 23
  incidence of EAE: 30%
[1]; G3, 1 mg/kg PO QD, day 24
  incidence of EAE: 30%
[1]; G3, 1 mg/kg PO QD, day 25
  incidence of EAE: 30%
[1]; G3, 1 mg/kg PO QD, day 26
  incidence of EAE: 30%
[1]; G3, 1 mg/kg PO QD, day 27
  incidence of EAE: 30%
[1]; G3, 1 mg/kg QD oral, day 0
  EAE clinical scoring, Mean: 0.00
[1]; G3, 1 mg/kg QD oral, day 2
  EAE clinical scoring, Mean: 0.00
[1]; G3, 1 mg/kg QD oral, day 4
  EAE clinical scoring, Mean: 0.00
[1]; G3, 1 mg/kg QD oral, day 7
  EAE clinical scoring, Mean: 0.00
[1]; G3, 1 mg/kg QD oral, day 9
  EAE clinical scoring, Mean: 0.00
[1]; G3, 1 mg/kg QD oral, day 11
  EAE clinical scoring, Mean: 0.00
[1]; G3, 1 mg/kg QD oral, day 12
  EAE clinical scoring, Mean: 0.10
[1]; G3, 1 mg/kg QD oral, day 13
  EAE clinical scoring, Mean: 0.20
[1]; G3, 1 mg/kg QD oral, day 14
  EAE clinical scoring, Mean: 0.70
[1]; G3, 1 mg/kg QD oral, day 15
  EAE clinical scoring, Mean: 1.30
[1]; G3, 1 mg/kg QD oral, day 16
  EAE clinical scoring, Mean: 1.70
[1]; G3, 1 mg/kg QD oral, day 17
  EAE clinical scoring, Mean: 1.70
[1]; G3, 1 mg/kg QD oral, day 18
  EAE clinical scoring, Mean: 1.40
[1]; G3, 1 mg/kg QD oral, day 19
  EAE clinical scoring, Mean: 1.30
[1]; G3, 1 mg/kg QD oral, day 20
  EAE clinical scoring, Mean: 1.00
[1]; G3, 1 mg/kg QD oral, day 21
  EAE clinical scoring, Mean: 0.90
[1]; G3, 1 mg/kg QD oral, day 22
  EAE clinical scoring, Mean: 0.80
[1]; G3, 1 mg/kg QD oral, day 23
  EAE clinical scoring, Mean: 0.70
[1]; G3, 1 mg/kg QD oral, day 24
  EAE clinical scoring, Mean: 0.30
[1]; G3, 1 mg/kg QD oral, day 25
  EAE clinical scoring, Mean: 0.30
[1]; G3, 1 mg/kg QD oral, day 26
  EAE clinical scoring, Mean: 0.30
[1]; G3, 1 mg/kg QD oral, day 27
  EAE clinical scoring, Mean: 0.30

## Cc1ccc(S(=O)(=O)/C=C/C#N)cc1 [BAY 11-7082, BAY11-7082, reference compound]
[2]
  IL-6 inhibition rate, Mean: 104.2%
[2]; listed as BAY compound
  IL-6 inhibition rate, Mean: approximately 104.2%
Rat primary astrocytes; 5 μM
  Cell viability percentage, Mean: 39.5%

## C[C@H]1C[C@H]2[C@@H]3CCC4=CC(=O)C=C[C@]4(C)[C@H]3C(=O)C[C@]2(C)[C@@]1(O)C(=O)CO [Meprednisone, reference compound]
[2]; Rattus norvegicus, Astrocyte, 30 μM, read-out: IL-6 inhibition rate, Mean
  inhibition at 30 µM: ~74.8%
Rat primary astrocytes; Rattus norvegicus, Astrocyte, 30 μM, read-out: Cell viability percentage, Mean
  viability at 30 µM: 81.7%

## CCCCCCCCc1ccc(CCC(N)(CO)CO)cc1 [Fingolimod, reference compound]
[1]; 0.5 mg/kg QD oral
  reduction rate in AUC for clinical scoring: 49%
[1]; G4, 0.5 mg/kg QD oral, day 0
  EAE clinical scoring, Mean: 0.00
  incidence of EAE: 0%
[1]; G4, 0.5 mg/kg QD oral, day 2
  EAE clinical scoring, Mean: 0.00
  incidence of EAE: 0%
[1]; G4, 0.5 mg/kg QD oral, day 4
  EAE clinical scoring, Mean: 0.00
  incidence of EAE: 0%
[1]; G4, 0.5 mg/kg QD oral, day 7
  EAE clinical scoring, Mean: 0.00
  incidence of EAE: 0%
[1]; G4, 0.5 mg/kg QD oral, day 9
  EAE clinical scoring, Mean: 0.00
  incidence of EAE: 0%
[1]; G4, 0.5 mg/kg QD oral, day 11
  EAE clinical scoring, Mean: 0.00
  incidence of EAE: 0%
[1]; G4, 0.5 mg/kg QD oral, day 12
  EAE clinical scoring, Mean: 0.00
  incidence of EAE: 0%
[1]; G4, 0.5 mg/kg QD oral, day 13
  EAE clinical scoring, Mean: 0.20
  incidence of EAE: 20%
[1]; G4, 0.5 mg/kg QD oral, day 14
  EAE clinical scoring, Mean: 0.70
  incidence of EAE: 60%
[1]; G4, 0.5 mg/kg QD oral, day 15
  EAE clinical scoring, Mean: 1.30
  incidence of EAE: 80%
[1]; G4, 0.5 mg/kg QD oral, day 16
  EAE clinical scoring, Mean: 1.70
  incidence of EAE: 80%
[1]; G4, 0.5 mg/kg QD oral, day 17
  EAE clinical scoring, Mean: 1.70
  incidence of EAE: 80%
[1]; G4, 0.5 mg/kg QD oral, day 18
  EAE clinical scoring, Mean: 1.40
  incidence of EAE: 70%
[1]; G4, 0.5 mg/kg QD oral, day 19
  EAE clinical scoring, Mean: 1.30
  incidence of EAE: 70%
[1]; G4, 0.5 mg/kg QD oral, day 20
  EAE clinical scoring, Mean: 1.00
  incidence of EAE: 60%
[1]; G4, 0.5 mg/kg QD oral, day 21
  EAE clinical scoring, Mean: 0.90
  incidence of EAE: 50%
[1]; G4, 0.5 mg/kg QD oral, day 22
  EAE clinical scoring, Mean: 0.80
  incidence of EAE: 50%
[1]; G4, 0.5 mg/kg QD oral, day 23
  EAE clinical scoring, Mean: 0.70
  incidence of EAE: 40%
[1]; G4, 0.5 mg/kg QD oral, day 24
  EAE clinical scoring, Mean: 0.50
  incidence of EAE: 20%
[1]; G4, 0.5 mg/kg QD oral, day 25
  EAE clinical scoring, Mean: 0.50
  incidence of EAE: 20%
[1]; G4, 0.5 mg/kg QD oral, day 26
  EAE clinical scoring, Mean: 0.50
  incidence of EAE: 20%
[1]; G4, 0.5 mg/kg QD oral, day 27
  EAE clinical scoring, Mean: 0.50
  incidence of EAE: 20%
